According to US9320739B2 (AMBIT BIOSCIENCES CORPORATION, priority 2008, dated 2016):
Read-outs that look alike come from different tables or passages of the source. Blank lines part the entries; values can stand above or below the molecule they belong to.

Experiments:
[1] = biological target: T1, RAF kinases (Homo sapiens, UniProt P04049); experiment: Competition binding assay to determine binding constants (Kd) between compounds and RAF kinases; details: RAF1
T1 construct: rows headed: RAF1 Kd; other: RAF1; fused on or other part: T7 phage fusion, or DNA tag for PCR detection after expression in HEK-293 cells
Procedure: (§1) Competition binding assays used herein were developed, validated and performed as described in Fabian et al., Nature Biotechnology 2005, 23, 329-336. […] The liganded beads were blocked with excess biotin and washed with blocking buffer (SeaBlock (Pierce), 1% BSA, 0.05% Tween 20, 1 mM DTT) to remove unbound ligand and to reduce non-specific binding. […] Test compounds were prepared as 100× stocks in DMSO and rapidly diluted into the aqueous environment. DMSO was added to control assays lacking a test compound. Primary screen interactions were performed in polypropylene 384-well plates in a final volume of 34 μL, while Kd determinations were performed in polystyrene 96-well plates in a final volume of 135 pt. […] The kinase concentration in the eluates was measured by quantitative PCR. Each kinase was tested individually against each compound. Kds were determined using eleven serial threefold dilutions. A selectivity score, which is a quantitative measure of selectivity of a compound against a panel of enzymes, may be calculated for a compound by dividing the number of enzymes for which a compound meets a set criteria, (for example, a binding constant of 100 nM or less), by the total number of enzymes tested. […] (Note, for those compounds tested in a larger kinase panel, as indicated by an asterisk (*) next to the S35 score, the divisor is 321 (i.e. the larger panel contains 321 distinct kinases, excluding mutant variants.)).

[2] = system: panel of 290 distinct kinases (321 in the larger panel), excluding mutant variants; details: no asterisk: panel of 290 distinct kinases
Procedure: as §1

[3] = biological target: T2, RAF kinases (Homo sapiens, UniProt P15056, V600E); experiment: Competition binding assay to determine binding constants (Kd) between compounds and RAF kinases; details: BRAF V600E
T2 construct: rows headed: BRAF V600E Kd; other: BRAF V600E; fused on or other part: T7 phage fusion, or DNA tag for PCR detection after expression in HEK-293 cells
Procedure: as §1

[4] = biological target: T3, RAF kinases (Homo sapiens, UniProt P15056); experiment: as above; details: BRAF WT
T3 construct: rows headed: BRAF WT Kd; other: BRAF WT; fused on or other part: T7 phage fusion, or DNA tag for PCR detection after expression in HEK-293 cells
Procedure: as §1

[5] = fraction of kinases inhibited 65% or greater

T1 sequence (P04049 whole entry, the tested form may be a part): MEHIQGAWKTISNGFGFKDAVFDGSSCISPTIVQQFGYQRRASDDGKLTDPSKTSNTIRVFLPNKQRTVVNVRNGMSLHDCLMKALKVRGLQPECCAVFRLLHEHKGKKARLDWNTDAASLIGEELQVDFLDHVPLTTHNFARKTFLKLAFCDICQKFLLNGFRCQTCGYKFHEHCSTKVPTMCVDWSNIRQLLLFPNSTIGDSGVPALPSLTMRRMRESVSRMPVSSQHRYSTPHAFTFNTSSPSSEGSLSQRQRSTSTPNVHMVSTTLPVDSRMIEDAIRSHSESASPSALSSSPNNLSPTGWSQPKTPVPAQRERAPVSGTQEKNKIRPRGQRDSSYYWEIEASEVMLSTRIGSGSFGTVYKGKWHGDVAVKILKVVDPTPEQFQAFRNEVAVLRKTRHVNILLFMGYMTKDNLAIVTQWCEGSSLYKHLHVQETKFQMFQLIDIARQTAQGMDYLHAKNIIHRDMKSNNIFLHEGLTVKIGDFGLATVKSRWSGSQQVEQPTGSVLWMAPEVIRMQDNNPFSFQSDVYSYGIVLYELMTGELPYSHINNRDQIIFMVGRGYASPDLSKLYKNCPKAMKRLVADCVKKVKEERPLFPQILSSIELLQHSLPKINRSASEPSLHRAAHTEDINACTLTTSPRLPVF
T2 sequence (P15056 whole entry V600E, the tested form may be a part): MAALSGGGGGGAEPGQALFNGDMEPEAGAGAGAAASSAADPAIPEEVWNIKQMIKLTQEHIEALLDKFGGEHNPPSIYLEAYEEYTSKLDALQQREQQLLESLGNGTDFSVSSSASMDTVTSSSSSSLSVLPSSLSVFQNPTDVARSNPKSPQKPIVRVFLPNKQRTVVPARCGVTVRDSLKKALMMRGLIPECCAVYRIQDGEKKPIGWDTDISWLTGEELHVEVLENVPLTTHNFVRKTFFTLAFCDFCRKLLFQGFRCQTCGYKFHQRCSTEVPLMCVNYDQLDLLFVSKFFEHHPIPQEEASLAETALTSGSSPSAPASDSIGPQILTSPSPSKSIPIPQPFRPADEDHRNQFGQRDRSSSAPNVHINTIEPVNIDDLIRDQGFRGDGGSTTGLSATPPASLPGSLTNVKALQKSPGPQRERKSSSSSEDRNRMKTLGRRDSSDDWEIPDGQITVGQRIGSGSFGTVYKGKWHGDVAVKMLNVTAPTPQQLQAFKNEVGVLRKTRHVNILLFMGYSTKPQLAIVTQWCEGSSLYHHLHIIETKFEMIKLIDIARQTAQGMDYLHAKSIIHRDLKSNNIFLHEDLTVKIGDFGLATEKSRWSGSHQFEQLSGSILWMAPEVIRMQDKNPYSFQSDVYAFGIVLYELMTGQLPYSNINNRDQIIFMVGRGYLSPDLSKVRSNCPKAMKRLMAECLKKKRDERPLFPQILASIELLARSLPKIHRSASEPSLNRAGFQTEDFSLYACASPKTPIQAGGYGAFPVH
T3 sequence (P15056 whole entry, the tested form may be a part): as the sequence (P15056 whole entry V600E, the tested form may be a part) above, with E600V counted along it

Compound: COc1cc2ncnc(Oc3cc(NC(=O)Nc4cc(C(C)(C)C)on4)ccc3Cl)c2cc1OC [Ex 10, 1-(5-tert-butylisoxazol-3-yl)-3-(4-chloro-3-(6,7-dimethoxyquinazolin-4-yloxy)phenyl)urea]
- Kd [1]: 500 to 1000 nM
- S35 [2, 5]: D (D > 0.40)

- Kd [3]: 250 to 500 nM
Compound: COc1cc2ncnc(Oc3cccc(NC(=O)Nc4cc(C(F)(F)F)n(-c5ccccc5)n4)c3)c2cc1OC [Ex 169, 1-[3-(6,7-dimethoxyquinazolin-4-yloxy)phenyl]-3-[1-phenyl-5-(trifluoromethyl)-1H-pyrazol-3-yl]urea]

Compound: COc1cc2ncnc(Oc3cccc(NC(=O)Nc4ccc(Cl)cc4)c3)c2cc1OC [Ex 175, 1-(4-chlorophenyl)-3-(3-(6,7-dimethoxyquinazolin-4-yloxy)phenyl)urea]
- Kd [4]: < 250 nM
- Kd [1]: < 250 nM
- Kd [3]: < 250 nM
- S35 [2, 5]: C (0.20 < C ≦ 0.40)

Compound: COc1cc2ncnc(Sc3cccc(NC(=O)Nc4cc(C(C)(C)C)nn4C4CCCCC4)c3)c2cc1OC [Ex 331, 1-(3-tert-butyl-1-cyclohexyl-1H-pyrazol-5-yl)-3-(3-(6,7-dimethoxyquinazolin-4-ylthio)phenyl)urea]
- S35 [2]: B (0.10 < B ≦ 0.20)

Compound: COc1cc2ncnc(Oc3cccc(NC(=O)Nc4cc(C(C)(C)C)nn4CC(C)C)c3)c2cc1OC [Ex 332, 1-(3-tert-butyl-1-isobutyl-1H-pyrazol-5-yl)-3-(3-(6,7-dimethoxyquinazolin-4-yloxy)phenyl)urea]
- S35 [2]: C (0.20 < C ≦ 0.40)

Compound: COc1cc2ncnc(Sc3cccc(NC(=O)Nc4cc(C(C)(C)C)nn4CC(C)C)c3)c2cc1OC [Ex 333, 1-(3-tert-butyl-1-isobutyl-1H-pyrazol-5-yl)-3-(3-(6,7-dimethoxyquinazolin-4-ylthio)phenyl)urea]
- S35 [2]: C (0.20 < C ≦ 0.40)

Compound: COc1cc2ncnc(Oc3cccc(NC(=O)Nc4cc(C(C)(C)C)nn4C(C)C)c3)c2cc1OC [Ex 334, 1-(3-tert-butyl-1-isopropyl-1H-pyrazol-5-yl)-3-(3-(6,7-dimethoxyquinazolin-4-yloxy)phenyl)urea]
- S35 [2]: C (0.20 < C ≦ 0.40)

Compound: COc1cc2ncnc(Sc3cccc(NC(=O)Nc4cc(C(C)(C)C)nn4C(C)C)c3)c2cc1OC [Ex 335, 1-(3-tert-butyl-1-isopropyl-1H-pyrazol-5-yl)-3-(3-(6,7-dimethoxyquinazolin-4-ylthio)phenyl)urea]
- S35 [2]: C (0.20 < C ≦ 0.40)

Compound: COc1cc2ncnc(Oc3cccc(NC(=O)Nc4cc(C(C)(C)C)nn4-c4ccncc4)c3)c2cc1OC [Ex 336, 1-(3-tert-butyl-1-(pyridin-4-yl)-1H-pyrazol-5-yl)-3-(3-(6,7-dimethoxyquinazolin-4-yloxy)phenyl)urea]
- S35 [2]: D (D > 0.40)

Compound: COc1cc2ncnc(Sc3cccc(NC(=O)Nc4cc(C(C)(C)C)nn4-c4ccncc4)c3)c2cc1OC [Ex 337, 1-(3-tert-butyl-1-(pyridin-4-yl)-1H-pyrazol-5-yl)-3-(3-(6,7-dimethoxyquinazolin-4-ylthio)phenyl)urea]
- S35 [2]: D (D > 0.40)

Compound: COc1cc2ncnc(Oc3cccc(NC(=O)Nc4cc(C(F)(F)F)nn4-c4cccc(C)c4)c3)c2cc1OC [Ex 338, 1-(3-(6,7-dimethoxyquinazolin-4-yloxy)phenyl)-3-(1-m-tolyl-3-(trifluoromethyl)-1H-pyrazol-5-yl)urea]
- S35 [2]: C (0.20 < C ≦ 0.40)

Compound: COc1cc2ncnc(Sc3cccc(NC(=O)Nc4cc(C(F)(F)F)nn4-c4cccc(C)c4)c3)c2cc1OC [Ex 339, 1-(3-(6,7-dimethoxyquinazolin-4-ylthio)phenyl)-3-(1-m-tolyl-3-(trifluoromethyl)-1H-pyrazol-5-yl)urea]
- S35 [2]: C (0.20 < C ≦ 0.40)

Compound: COc1cc2ncnc(Oc3cccc(NC(=O)Nc4cc(C(C)(C)C)nn4-c4ccccc4Cl)c3)c2cc1OC [Ex 340, 1-(3-tert-butyl-1-(2-chlorophenyl)-1H-pyrazol-5-yl)-3-(3-(6,7-dimethoxyquinazolin-4-yloxy)phenyl)urea]
- S35 [2]: D (D > 0.40)

Compound: COc1cc2ncnc(Sc3cccc(NC(=O)Nc4cc(C(C)(C)C)nn4-c4ccccc4Cl)c3)c2cc1OC [Ex 341, 1-(3-tert-butyl-1-(2-chlorophenyl)-1H-pyrazol-5-yl)-3-(3-(6,7-dimethoxyquinazolin-4-ylthio)phenyl)urea]
- S35 [2]: C (0.20 < C ≦ 0.40)

Compound: COc1cc2ncnc(Oc3cccc(NC(=O)Nc4cc(C(C)(C)C)nn4-c4ccccc4C)c3)c2cc1OC [Ex 342, 1-(3-tert-butyl-1-o-tolyl-1H-pyrazol-5-yl)-3-(3-(6,7-dimethoxyquinazolin-4-yloxy)phenyl)urea]
- S35 [2]: D (D > 0.40)

Compound: COc1cc2ncnc(Sc3cccc(NC(=O)Nc4cc(C(C)(C)C)nn4-c4ccccc4C)c3)c2cc1OC [Ex 343, 1-(3-tert-butyl-1-o-tolyl-1H-pyrazol-5-yl)-3-(3-(6,7-dimethoxyquinazolin-4-ylthio)phenyl)urea]
- S35 [2]: C (0.20 < C ≦ 0.40)

Compound: COc1cc2ncnc(Oc3cccc(NC(=O)Nc4cc(C(C)(C)C)nn4-c4ccccn4)c3)c2cc1OC [Ex 344, 1-(3-tert-Butyl-1-(pyridin-2-yl)-1H-pyrazol-5-yl)-3-(3-(6,7-dimethoxyquinazolin-4-yloxy)phenyl)urea]
- S35 [2]: C (0.20 < C ≦ 0.40)

Compound: COc1cc2ncnc(Sc3cccc(NC(=O)Nc4cc(C(C)(C)C)nn4-c4ccccn4)c3)c2cc1OC [Ex 345, 1-(3-tert-butyl-1-(pyridin-2-yl)-1H-pyrazol-5-yl)-3-(3-(6,7-dimethoxyquinazolin-4-ylthio)phenyl)urea]
- S35 [2]: B (0.10 < B ≦ 0.20)

Compound: COc1cc2ncnc(Oc3cccc(NC(=O)Nc4cc(C5(C(F)(F)F)CC5)nn4-c4ccc(C)cc4)c3)c2cc1OC [Ex 346, 1-(3-(6,7-dimethoxyquinazolin-4-yloxy)phenyl)-3-(1-p-tolyl-3-(1-(trifluoromethyl)cyclopropyl)-1H-pyrazol-5-yl)urea]
- S35 [2]: D (D > 0.40)

Compound: COc1cc2ncnc(Sc3cccc(NC(=O)Nc4cc(C5(C(F)(F)F)CC5)nn4-c4ccc(C)cc4)c3)c2cc1OC [Ex 347, 1-(3-(6,7-dimethoxyquinazolin-4-ylthio)phenyl)-3-(1-p-tolyl-3-(1-(trifluoromethyl)cyclopropyl)-1H-pyrazol-5-yl)urea]
- S35 [2]: D (D > 0.40)

Compound: COc1ccc(-n2nc(C(C)C)cc2NC(=O)Nc2cccc(Oc3ncnc4cc(OC)c(OC)cc34)c2)cc1 [Ex 348, 1-(3-(6,7-dimethoxyquinazolin-4-yloxy)phenyl)-3-(3-isopropyl-1-(4-methoxyphenyl)-1H-pyrazol-5-yl)urea]
- S35 [2]: D (D > 0.40)

Compound: COc1ccc(-n2nc(C(C)C)cc2NC(=O)Nc2cccc(Sc3ncnc4cc(OC)c(OC)cc34)c2)cc1 [Ex 349, 1-(3-(6,7-dimethoxyquinazolin-4-ylthio)phenyl)-3-(3-isopropyl-1-(4-methoxyphenyl)-1H-pyrazol-5-yl)urea]
- S35 [2]: C (0.20 < C ≦ 0.40)

Compound: COc1cc2ncnc(Oc3cccc(NC(=O)Nc4cc(C(C)C)nn4-c4cccnc4)c3)c2cc1OC [Ex 350, 1-(3-(6,7-dimethoxyquinazolin-4-yloxy)phenyl)-3-(3-isopropyl-1-(pyridin-3-yl)-1H-pyrazol-5-yl)urea]
- S35 [2]: D (D > 0.40)

Compound: COc1cc2ncnc(Sc3cccc(NC(=O)Nc4cc(C(C)C)nn4-c4cccnc4)c3)c2cc1OC [Ex 351, 1-(3-(6,7-dimethoxyquinazolin-4-ylthio)phenyl)-3-(3-isopropyl-1-(pyridin-3-yl)-1H-pyrazol-5-yl)urea]
- S35 [2]: C (0.20 < C ≦ 0.40)

Compound: CCc1cc(NC(=O)Nc2cccc(Oc3ncnc4cc(OC)c(OC)cc34)c2)n(-c2ccccc2)n1 [Ex 352, 1-(3-(6,7-dimethoxyquinazolin-4-yloxy)phenyl)-3-(3-ethyl-1-phenyl-1H-pyrazol-5-yl)urea]
- S35 [2]: C (0.20 < C ≦ 0.40)

Compound: COc1cc2ncnc(Oc3cccc(NC(=O)Nc4cc(C5CC5)nn4-c4ccccc4)c3)c2cc1OC [Ex 353, 1-(3-cyclopropyl-1-phenyl-1H-pyrazol-5-yl)-3-(3-(6,7-dimethoxyquinazolin-4-yloxy)phenyl)urea]
- S35 [2]: C (0.20 < C ≦ 0.40)

Compound: COc1cc2ncnc(Sc3cccc(NC(=O)Nc4cc(C5CC5)nn4-c4ccccc4)c3)c2cc1OC [Ex 354, 1-(3-cyclopropyl-1-phenyl-1H-pyrazol-5-yl)-3-(3-(6,7-dimethoxyquinazolin-4-ylthio)phenyl)urea]
- S35 [2]: C (0.20 < C ≦ 0.40)

Compound: COc1cc2ncnc(Oc3cccc(NC(=O)Nc4cc(C5CCC5)nn4-c4ccccc4)c3)c2cc1OC [Ex 355, 1-(3-cyclobutyl-1-phenyl-1H-pyrazol-5-yl)-3-(3-(6,7-dimethoxyquinazolin-4-yloxy)phenyl)urea]
- S35 [2]: C (0.20 < C ≦ 0.40)
